# From ChEMBL document CHEMBL1148115, “Malevamide D: isolation and structure determination of an isodolastatin H analogue from the marine cyanobacterium Symploca hydnoides” (J Nat Prod, 2002)
# pIC50: −log10 of the molar value.
# What was measured:
# Assay type in all cases: functional, cell-based
# P388 = assay: Cytotoxicity against mouse P388 cells
# SK-MEL-28 = assay: Cytotoxicity against human SK-MEL-28 cells
# A549 = assay: Cytotoxicity against human A549 cells
# HT-29 = assay: Cytotoxicity against human HT-29 cells
smiles,measurement,setting,value
CC[C@H](C)[C@@H](C(=O)N[C@H](C(=O)N(C)[C@@H](C(C)C)[C@@H](CC(=O)N1CCC[C@H]1[C@H](OC)[C@@H](C)C(=O)O[C@H](CO)Cc1ccccc1)OC)C(C)C)N(C)C [MALEVAMIDE D],pIC50,P388,9.52
same,pIC50,SK-MEL-28,9.15
same,pIC50,A549,9.52
same,pIC50,HT-29,9.52
